Data: patent US20090131356A1, “miR-15, miR-26, miR-31, miR-145, miR-147, miR-188, miR-215, miR-216, miR-331, mmu-miR-292-3P REGULATED GENES AND PATHWAYS AS TARGETS FOR THERAPEUTIC INTERVENTION” (ASURAGEN, INC., priority 2006, published 2009)

Key:
Assay type in all cases: cell-based, human
H520 cells = assay: Alamar Blue proliferation assay, H520
From the text: (§1) The inventors assessed the therapeutic effect of hsa-miR-147 for lung cancer by using 12 individual lung cancer cell lines. To measure cellular proliferation of lung cancer cells, the following parental non-small cell lung cancer (NSCLC) cells were used: cells derived from lung adenocarcinoma (A549, H1299, H522, H838, Calu-3, HCC827, HCC2935), cells derived from lung squamous cell carcinoma (H520, H226), cells derived from lung adenosquamous cell carcinoma (H596), cells derived from lung bronchioalveolar carcinoma (H1650), and cells derived from lung large cell carcinoma (H460). In addition to these parental cell lines, highly metastatic NSCLC cells were used that stably express the firefly luciferase gene: A549-luc, H460-luc, HCC827-luc, H1650-luc, H441-luc. Unlike the parental cell lines, these metastatic cells readily migrate to distant sites of the test animal and form metastases upon subcutaneous, orthotopic, or intravenous injection. Synthetic hsa-miR-147 or negative control miRNA was delivered via lipid-based transfection into A549, H1299, H522, H838, Calu-3, HCC827, HCC2935, H520, H596, H1650, H460, A549-luc, H460-luc, HCC827-luc, H1650-luc, H441-luc cells and via electroporation into H226 cells. Lipid-based reverse transfection was carried out in triplicates according to a published protocol and the following parameters: 5000-12000 cells per 96 well, 0.1-0.2 μl lipofectamine-2000 (Invitrogen, Carlsbad, Calif.) in 20 μl OptiMEM (Invitrogen), […] final concentration of miRNA in 100 μl (Ovcharenko et al., 2005). Electroporation of H226 cells was carried out using the BioRad GenePulserXcell™ instrument with the following settings: 5×10^6 cells with 5 μg miRNA in 200 μl OptiMEM, square wave pulse at 250 V for 5 ms. Electroporated H226 cells were seeded at 7000 cells per 96-well in a total volume of 100 μl. All cells except for Calu-3 cells were harvested 72 hours post transfection or electroporation for assessment of cellular proliferation. Calu-3 cells were harvested 10 days post transfection. […]

A549 cells = assay: Alamar Blue proliferation assay, A549
From the text: as §1, with “ms.” for “ms. Electroporated H226 cells were seeded at 7000 cells per 96-well in a total volume of 100 μl. All cells except for Calu-3 cells were harvested 72 hours post transfection or electroporation for assessment of cellular proliferation. Calu-3 cells were harvested 10 days post transfection.”
(§2) The inventors determined sensitivity and specificity of hsa-miR-147 by administering hsa-miR-147 or negative control miRNA at increasing concentrations, ranging from 0 pM to 3 nM. Delivery of miRNA and cellular proliferation of A549 and H1299 cells was assessed as described above. […]

H1299 cells = assay: Alamar Blue proliferation assay, H1299
From the text: as §1, with “ms.” for “ms. Electroporated H226 cells were seeded at 7000 cells per 96-well in a total volume of 100 μl. All cells except for Calu-3 cells were harvested 72 hours post transfection or electroporation for assessment of cellular proliferation. Calu-3 cells were harvested 10 days post transfection.”
as §2

H460-luc cells = assay: Alamar Blue proliferation assay, H460-luc
From the text: as §1

H226 cells = assay: Alamar Blue proliferation assay, H226 (electroporation)
From the text: as §1

H838 cells = assay: Alamar Blue proliferation assay, H838
From the text: as §1

H1650 cells = assay: Alamar Blue proliferation assay, H1650
From the text: as §1

[1] = 30 nM, normalized to negative control miRNA (100% proliferation)
[2] = etoposide 10 μM, normalized to negative control miRNA (100%)
[3] = etoposide 50 μM, normalized to negative control miRNA (100%)

## hsa-miR-147: Synthetic pre-miR-147 (Ambion AM17100; Dharmacon in vivo); mature sequence GUGUGUGGAAAUGCUUCUGC, MIMAT0000251, SEQ ID NO:114 (synthetic pre-miR (Ambion/Dharmacon), chemistry not given here; listed as Homo sapiens)
H520 cells; [1]
  % proliferation: 95.64%
A549 cells; [1]
  % proliferation: 67.78%
H1299 cells; [1]
  % proliferation: 78.22%
H460-luc cells; [1]
  % proliferation: 39.54%
H226 cells; [1]
  % proliferation: 72.82%
H838 cells; [1]
  % proliferation: 71.44%
H1650 cells; [1]
  % proliferation: 84.61%

## COc1cc([C@@H]2c3cc4c(cc3[C@@H](O[C@@H]3O[C@@H]5CO[C@@H](C)O[C@H]5[C@H](O)[C@H]3O)[C@H]3COC(=O)[C@H]23)OCO4)cc(OC)c1O [Etoposide, etoposide]
H520 cells; [2]
  % proliferation: 66.80%
H520 cells; [3]
  % proliferation: 48.53%
A549 cells; [2]
  % proliferation: 49.13%
A549 cells; [3]
  % proliferation: 42.18%
H1299 cells; [2]
  % proliferation: 79.65%
H1299 cells; [3]
  % proliferation: 54.38%
H460-luc cells; [2]
  % proliferation: 15.04%
H460-luc cells; [3]
  % proliferation: 2.34%
H226 cells; [2]
  % proliferation: 28.17%
H226 cells; [3]
  % proliferation: 9.33%
H838 cells; [2]
  % proliferation: 89.71%
H838 cells; [3]
  % proliferation: 36.97%
H1650 cells; [2]
  % proliferation: 90.98%
H1650 cells; [3]
  % proliferation: 60.31%
